In PubChem BioAssay AID248 (DTP/NCI, 2004):
Where “and” joins values, the source holds several entries; their conditions need not be identical. Equal entries are not always repeated. Inconclusive results and toxic doses are left out. Rule as the data show it: active = T/C of 150% or more; inactive = T/C below 125%.

Test system: L1210 leukemia ip in BDF1 mice, survival T/C
Assay: NCI In Vivo Anticancer Drug Screen. Data for tumor model L1210 Leukemia (intraperitoneal) in B6D2F1 (BDF1) mice
Settings: endpoint: mean survival time, higher = longer survival
In short: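 Tumor cells were implanted, animals were treated, and survival was followed. The result divides the treated measurement by the vehicle-control measurement.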

[1] = dose: 100.0 mg/kg/injection, schedule: Q01DX009 (ip), vehicle: saline with Tween-80
[2] = dose: 200.0 mg/kg/injection, schedule: Q01DX009 (ip), vehicle: saline with Tween-80
[3] = dose: 100.0 mg/kg/injection, schedule: Q01DX001 (ip), vehicle: saline
[4] = dose: 50.0 mg/kg/injection, schedule: Q01DX009 (ip), vehicle: saline with Tween-80
[5] = dose: 100.0 mg/kg/injection, schedule: Q01DX001 (ip), vehicle: saline with Tween-80
[6] = dose: 200.0 mg/kg/injection, schedule: Q01DX001 (ip), vehicle: saline with Tween-80
[7] = dose: 400.0 mg/kg/injection, schedule: Q01DX001 (ip), vehicle: saline with Tween-80

Measured: T/C

O=c1cc(O)ccn1CCc1cccs1
inactive: [1] 94 % of control | dose: 100.0 mg/kg/injection, schedule: Q04DX003 (ip), vehicle: saline with Tween-80 91 % of control | [2] 96 % of control | dose: 200.0 mg/kg/injection, schedule: Q04DX003 (ip), vehicle: saline with Tween-80 98 % of control | dose: 400.0 mg/kg/injection, schedule: Q04DX003 (ip), vehicle: saline with Tween-80 90 % of control

[O-][n+]1ccccc1CCl
inactive: dose: 50.0 mg/kg/injection, schedule: Q01DX001 (ip), vehicle: saline 98 % of control | [3] 100 % of control

O=C(NCCCl)Nc1ccccn1
inactive: dose: 100.0 mg/kg/injection, schedule: Q04DX003 (ip), vehicle: Klucel (hydroxypropylcellulose) (HPC) 90 % of control | dose: 200.0 mg/kg/injection, schedule: Q04DX003 (ip), vehicle: Klucel (hydroxypropylcellulose) (HPC) 94 % of control | dose: 400.0 mg/kg/injection, schedule: Q04DX003 (ip), vehicle: Klucel (hydroxypropylcellulose) (HPC) 86 % of control

C/C=C\c1ccc(OCCOC(=O)Nc2c(C)cccc2C)c(OC)c1
inactive: [1] 92 % of control | [2] 89 % of control | dose: 400.0 mg/kg/injection, schedule: Q01DX009 (ip), vehicle: saline with Tween-80 87 % of control

CC(C)C(Br)C(Br)c1ccccc1 (stereo not drawn)
inactive: [4] 96 % of control | [1] 102 % of control | [2] 96 % of control

NCCc1ccc(O)c(CO)c1
inactive: dose: 100.0 mg/kg/injection, schedule: Q04DX002 (ip), vehicle: saline 105 % of control | dose: 200.0 mg/kg/injection, schedule: Q04DX002 (ip), vehicle: saline 86 % of control | dose: 400.0 mg/kg/injection, schedule: Q04DX002 (ip), vehicle: saline 105 % of control

NC(Cc1cccnc1)C(=O)O (stereo not drawn)
inactive: [5] 109 % of control | [6] 103 % of control | [7] 98 % of control

Cc1ccc(S(=O)(=O)c2ccc(S(=O)(=O)c3ccccc3)cc2)cc1
inactive: [3] 95 % of control and 92 % of control | dose: 200.0 mg/kg/injection, schedule: Q01DX001 (ip), vehicle: saline 97 % of control | dose: 400.0 mg/kg/injection, schedule: Q01DX001 (ip), vehicle: saline 105 % of control and 91 % of control

C1=Nc2ccccc2/C1=C/C=C/c1ccccc1
inactive: dose: 100.0 mg/kg/injection, schedule: Q04DX002 (ip), vehicle: gum acacia 88 % of control | dose: 200.0 mg/kg/injection, schedule: Q04DX002 (ip), vehicle: gum acacia 95 % of control | dose: 400.0 mg/kg/injection, schedule: Q04DX002 (ip), vehicle: gum acacia 95 % of control

S=c1nc[nH]c2c1ncn2CCCc1ccccc1
inactive: dose: 50.0 mg/kg/injection, schedule: Q01DX001 (ip), vehicle: carboxymethylcellulose (CMC) 106 % of control | dose: 100.0 mg/kg/injection, schedule: Q01DX001 (ip), vehicle: carboxymethylcellulose (CMC) 98 % of control | dose: 200.0 mg/kg/injection, schedule: Q01DX001 (ip), vehicle: carboxymethylcellulose (CMC) 98 % of control | dose: 400.0 mg/kg/injection, schedule: Q01DX001 (ip), vehicle: carboxymethylcellulose (CMC) 95 % of control

CN=NC(C)C
inactive: [5] 97 % of control | [6] 107 % of control | [7] 112 % of control

CC(=O)N1CCc2nc3ccccc3cc21
inactive: dose: 37.5 mg/kg/injection, schedule: Q01DX009 (ip), vehicle: saline with Tween-80 96 % of control | dose: 37.5 mg/kg/injection, schedule: Q04DX003 (ip), vehicle: saline 104 % of control | dose: 75.0 mg/kg/injection, schedule: Q01DX001 (ip), vehicle: saline 95 % of control | dose: 75.0 mg/kg/injection, schedule: Q01DX009 (ip), vehicle: saline with Tween-80 94 % of control | dose: 75.0 mg/kg/injection, schedule: Q04DX003 (ip), vehicle: saline 104 % of control | dose: 150.0 mg/kg/injection, schedule: Q01DX001 (ip), vehicle: saline 101 % of control | dose: 150.0 mg/kg/injection, schedule: Q01DX009 (ip), vehicle: saline with Tween-80 88 % of control | dose: 150.0 mg/kg/injection, schedule: Q04DX003 (ip), vehicle: saline 106 % of control

COCCCNS(=O)(=O)c1ncnc2nc[nH]c12
inactive: dose: 10.0 mg/kg/injection, schedule: Q01DX Z (ip), vehicle: carboxymethylcellulose (CMC) 105 % of control | dose: 20.0 mg/kg/injection, schedule: Q01DX Z (ip), vehicle: carboxymethylcellulose (CMC) 103 % of control | dose: 25.0 mg/kg/injection, schedule: Q01DX Z (ip), vehicle: carboxymethylcellulose (CMC) 105 % of control | dose: 40.0 mg/kg/injection, schedule: Q01DX Z (ip), vehicle: carboxymethylcellulose (CMC) 103 % of control | dose: 50.0 mg/kg/injection, schedule: Q01DX Z (ip), vehicle: carboxymethylcellulose (CMC) 110 % of control | dose: 80.0 mg/kg/injection, schedule: Q01DX Z (ip), vehicle: carboxymethylcellulose (CMC) 93 % of control | dose: 100.0 mg/kg/injection, schedule: Q01DX Z (ip), vehicle: carboxymethylcellulose (CMC) 117 % of control | dose: 125.0 mg/kg/injection, schedule: Q01DX Z (ip), vehicle: carboxymethylcellulose (CMC) 88 % of control | dose: 250.0 mg/kg/injection, schedule: Q01DX Z (ip), vehicle: carboxymethylcellulose (CMC) 87 % of control

CCN(CC)C(=O)SCCSC(=O)N(CC)CC
inactive: dose: 25.0 mg/kg/injection, schedule: Q01DX009 (ip), vehicle: saline with Tween-80 110 % of control | [4] 110 % of control | [1] 93 % of control

CSCCC(NC(=O)COc1ccc(Cl)cc1Cl)C(=O)O (stereo not drawn)
inactive: dose: 100.0 mg/kg/injection, schedule: Q01DX009 (ip), vehicle: Klucel (hydroxypropylcellulose) (HPC) 100 % of control | dose: 200.0 mg/kg/injection, schedule: Q01DX009 (ip), vehicle: Klucel (hydroxypropylcellulose) (HPC) 101 % of control | dose: 400.0 mg/kg/injection, schedule: Q01DX009 (ip), vehicle: Klucel (hydroxypropylcellulose) (HPC) 108 % of control
